Literature values in patent US7309714B2, “Phenylalanine derivatives as dipeptidyl peptidase inhibitors for the treatment or prevention of diabetes” (Merck & Co., Inc., priority 2003, dated 2007).

Tests used:
hematopoiesis = conditions: mouse, cyclophosphamide-induced neutropenia
DP-IV = biological target: T1, DP-IV (Homo sapiens, UniProt P27487)
T1 construct: GRF is rapidly degraded in plasma to GRF[3-44]; from tissue

cardiac allograft = conditions: rats; survival doubled from day 7 to day 14

T1 sequence (P27487 whole entry): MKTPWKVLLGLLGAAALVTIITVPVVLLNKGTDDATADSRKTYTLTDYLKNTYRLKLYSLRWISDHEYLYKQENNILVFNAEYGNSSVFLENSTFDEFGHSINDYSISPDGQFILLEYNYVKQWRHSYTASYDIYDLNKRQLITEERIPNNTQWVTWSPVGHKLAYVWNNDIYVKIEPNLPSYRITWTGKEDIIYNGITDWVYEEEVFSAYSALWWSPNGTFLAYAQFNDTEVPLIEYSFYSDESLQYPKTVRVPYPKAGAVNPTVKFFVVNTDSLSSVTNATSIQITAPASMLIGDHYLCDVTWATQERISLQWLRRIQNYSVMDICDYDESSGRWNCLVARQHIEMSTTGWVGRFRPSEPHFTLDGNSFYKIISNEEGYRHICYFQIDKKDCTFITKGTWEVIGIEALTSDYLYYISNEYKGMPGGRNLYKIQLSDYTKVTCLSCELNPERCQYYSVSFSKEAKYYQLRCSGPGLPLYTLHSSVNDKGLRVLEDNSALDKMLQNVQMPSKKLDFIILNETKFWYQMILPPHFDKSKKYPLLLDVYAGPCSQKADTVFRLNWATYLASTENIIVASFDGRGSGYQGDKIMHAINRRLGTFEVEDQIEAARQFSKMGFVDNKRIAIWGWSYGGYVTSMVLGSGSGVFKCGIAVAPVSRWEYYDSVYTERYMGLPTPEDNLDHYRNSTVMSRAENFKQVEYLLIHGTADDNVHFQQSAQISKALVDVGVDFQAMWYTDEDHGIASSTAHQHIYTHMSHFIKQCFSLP

In the case of `CC(C)[C@H](N)C(=O)N1CCC[C@H]1B(O)O` [Val-Boro-Pro], the effect on hematopoiesis (hematopoiesis) is listed as “stimulated hematopoiesis”.
In the case of `CC[C@H](C)[C@H](N)C(=O)N1CCC[C@H]1C(=O)N[C@H](C(=O)O)[C@@H](C)CC` [diprotin A], the “effect on degradation of GRF to GRF[3-44] in plasma” value (DP-IV) is listed as “prevented”.
For `CC(C)N1CCC(c2ccccc2)(c2ccccc2)CC1` [Prodipine, Pro-Pro-diphenyl-phosphonate], the cardiac allograft survival (cardiac allograft) is given as 14 day.
